According to paper PMC8454703 (Biochemical Journal, 2021):
Changes are numbered by the printed parent chain.

Key:
Test in all cases: SPR, protein over lipid vesicles on L1 chip
Assay type in all cases: binding
[1] = target: T1, sTIM-4 (Homo sapiens, UniProt Q96H15)
T1 sequence (Q96H15 25-314 limits assumed): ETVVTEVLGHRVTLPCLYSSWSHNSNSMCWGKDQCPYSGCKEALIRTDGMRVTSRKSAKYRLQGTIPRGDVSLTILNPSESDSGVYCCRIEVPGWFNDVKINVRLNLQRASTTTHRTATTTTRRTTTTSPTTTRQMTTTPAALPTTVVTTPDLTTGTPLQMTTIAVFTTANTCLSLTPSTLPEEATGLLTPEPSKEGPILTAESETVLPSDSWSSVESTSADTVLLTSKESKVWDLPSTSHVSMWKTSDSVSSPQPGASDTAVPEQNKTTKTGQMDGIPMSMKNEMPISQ

[2] = target: T2, sTIM-1 (Homo sapiens, UniProt Q96D42)
T2 sequence (Q96D42 21-295 limits assumed): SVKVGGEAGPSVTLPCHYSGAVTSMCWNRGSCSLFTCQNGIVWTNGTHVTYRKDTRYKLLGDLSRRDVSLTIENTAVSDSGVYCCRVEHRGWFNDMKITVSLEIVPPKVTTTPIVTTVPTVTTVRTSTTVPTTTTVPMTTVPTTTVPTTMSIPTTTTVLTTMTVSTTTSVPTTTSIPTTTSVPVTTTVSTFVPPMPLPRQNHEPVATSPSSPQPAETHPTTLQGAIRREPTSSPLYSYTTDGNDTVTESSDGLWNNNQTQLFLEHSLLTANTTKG

[3] = target: T3, sTIM-3 (Homo sapiens, UniProt Q8TDQ0, I117A/M118A)
T3 sequence (Q8TDQ0 22-202 I117A/M118A limits assumed): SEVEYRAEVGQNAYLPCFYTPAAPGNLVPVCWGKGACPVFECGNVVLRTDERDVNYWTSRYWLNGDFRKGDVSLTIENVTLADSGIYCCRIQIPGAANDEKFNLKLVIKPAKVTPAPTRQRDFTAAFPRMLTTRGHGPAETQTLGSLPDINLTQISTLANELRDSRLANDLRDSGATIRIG

[4] = target: T4, sTIM-3 (Homo sapiens, UniProt Q8TDQ0, F61A)
T4 sequence (Q8TDQ0 22-202 F61A limits assumed): T3 sequence (Q8TDQ0 22-202 I117A/M118A limits assumed) with F40A, A96I, A97M

[5] = target: T5, sTIM-3 (Homo sapiens, UniProt Q8TDQ0)
T5 sequence (Q8TDQ0 22-202 limits assumed): T3 sequence (Q8TDQ0 22-202 I117A/M118A limits assumed) with A96I, A97M

**Q.** Which Kd [1] does the source give for `CCCCCCCC/C=C\CCCCCCCC(=O)OC[C@H](COP(=O)(O)OC[C@H](N)C(=O)O)OC(=O)CCCCCCC/C=C\CCCCCCCC` [DOPS] here?
**A.** 770 ± 320 nM

**Q.** What about the Kd [2] of the same compound?
**A.** 350 ± 50 nM

**Q.** And the Kd [3]?
**A.** > 200 µM

**Q.** And the Kd [4]?
**A.** > 200 µM

**Q.** What about the Kd [5] of the same compound?
**A.** 9.7 ± 4.2 µM
